The results in this text go back to ChEMBL document CHEMBL1921793, “Bacterial production of the tunicate-derived antitumor cyclic depsipeptide didemnin B” (J Nat Prod, 2011).

Converted amounts (≈) assume the structure as drawn.

One experiment deals with A549. The experiment is described as follows: Cytotoxicity against human A549 cells after 96 hrs by microplate reader analysis. It counts as functional, cell-based. As to conditions: A549, 96 h.
In another experiment the test system is HT-29. Put plainly: Cytotoxicity against human HT-29 cells after 96 hrs by microplate reader analysis. In kind it is functional, cell-based. As to conditions: HT-29, 96 h.

A word on the IC50: it is the concentration that inhibits the measured activity by half. Read a high IC50 as weaker potency. As for `CC[C@H](C)[C@@H]1NC(=O)[C@@H](NC(=O)[C@@H](CC(C)C)N(C)C(=O)[C@@H]2CCCN2C(=O)[C@H](C)OC(C)=O)[C@H](C)OC(=O)[C@H](Cc2ccc(OC)cc2)N(C)C(=O)[C@@H]2CCCN2C(=O)[C@H](CC(C)C)NC(=O)[C@@H](C)C(=O)[C@H](C(C)C)OC(=O)C[C@@H]1O` [NORDIDEMNIN B], the concentration for half-maximal inhibition (IC50) with A549 is 7 ng/mL (≈ 6.06 nM); with HT-29 it was 10 ng/mL (≈ 8.66 nM).
